Read-outs that look alike come from different tables or passages of the source.

One experiment concerns the target T1, RXRα (Homo sapiens, UniProt P19793).
T1 construct: expressed in transfected cells
T1 sequence (P19793 1-462): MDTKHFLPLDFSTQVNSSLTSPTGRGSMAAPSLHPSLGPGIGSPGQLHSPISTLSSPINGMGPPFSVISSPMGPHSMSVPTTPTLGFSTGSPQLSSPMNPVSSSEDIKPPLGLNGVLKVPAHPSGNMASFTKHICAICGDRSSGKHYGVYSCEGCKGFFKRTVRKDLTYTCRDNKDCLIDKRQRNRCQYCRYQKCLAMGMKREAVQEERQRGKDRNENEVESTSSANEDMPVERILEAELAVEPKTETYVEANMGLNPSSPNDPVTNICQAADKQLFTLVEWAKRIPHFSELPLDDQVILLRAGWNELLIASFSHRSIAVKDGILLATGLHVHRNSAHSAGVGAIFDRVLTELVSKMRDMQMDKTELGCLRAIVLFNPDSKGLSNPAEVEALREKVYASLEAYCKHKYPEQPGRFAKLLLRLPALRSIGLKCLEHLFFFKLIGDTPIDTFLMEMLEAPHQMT
As to the kind of experiment: holoreceptor transactivation assay, RXRα. The experiment is classed as cell-based. Particulars: for EC50: holoreceptor transactivation, RXRα, read-out: RXR Trans. EC50 α; for Emax: relative to 10^-6 M cyclopropyl penta-2,4-dienoic acid reference (RXRs), read-out: % efficacy (RXRα transactivation). The source says:
(§1) Other assays described below, measure the ability of the compounds of the present invention to bind to, and/or activate various retinoid receptor subtypes. When in these assays a compound binds to a given receptor subtype and activates the transcription of a reporter gene through that subtype, then the compound is considered an agonist of that receptor subtype. […] In the below described assays the ability of the compounds to bind to RARα, RARβ, RARγ, RXRα, RXRβ and RXRγ receptors, and the ability or inability of the compounds to activate transcription of a reporter gene through these receptor subtypes can be tested. […] However, some of the compounds of the invention may behave as retinoid antagonists or partial antagonists and/or as inverse agonists. Because of the complex distribution of the different retinoid receptors in various organs of the mammalian body partial agonists and partial antagonists and compounds which have the characteristics of both may lend themselves to particularly useful therapeutic applications and may avoid serious side effects of conventional retinoid drugs.
(§2) A holoreceptor transactivation assay and a ligand binding assay which measure the antagonist/agonist like activity of the compounds of the invention, or their ability to bind to the several retinoid receptor subtypes, respectively, are described in published PCT Application No. WO WO93/11755 (particularly on pages 30-33 and 37-41) published on Jun. 24, 1993, the specification of which is also incorporated herein by reference. A detailed experimental procedure for holoreceptor transactivations has been described by Heyman et al. Cell 68, 397-406, (1992); Allegretto et al. J. Biol. Chem. 268, 26625-26633, and Mangelsdorf et al. The Retinoids: Biology, Chemistry and Medicine, pp 319-349, Raven Press Ltd., New York, which are expressly incorporated herein by reference. The results obtained in this assay are expressed in EC50 numbers, as they are also in the chimeric receptor transactivation assay. The results of ligand binding assay are expressed in Kd numbers. (See Cheng et al. Biochemical Pharmacology Vol. 22 pp 3099-3108, expressly incorporated herein by reference.)
(§3) Table 1 discloses the activity of certain exemplary compounds of the invention in the above-described chimeric receptor transactivation assay, holoreceptor transactivation assay and a ligand binding assays. Particularly, the transactivation data pertaining to RAR receptors were obtained in the chimeric assay, and the data pertaining to transactivation of RXR receptors were obtained in the holoreceptor transactivation assay.

For a further experiment, the target named is T2, RXRγ (Mus musculus, UniProt P28705).
T2 construct: expressed in transfected cells
T2 sequence (P28705 1-463): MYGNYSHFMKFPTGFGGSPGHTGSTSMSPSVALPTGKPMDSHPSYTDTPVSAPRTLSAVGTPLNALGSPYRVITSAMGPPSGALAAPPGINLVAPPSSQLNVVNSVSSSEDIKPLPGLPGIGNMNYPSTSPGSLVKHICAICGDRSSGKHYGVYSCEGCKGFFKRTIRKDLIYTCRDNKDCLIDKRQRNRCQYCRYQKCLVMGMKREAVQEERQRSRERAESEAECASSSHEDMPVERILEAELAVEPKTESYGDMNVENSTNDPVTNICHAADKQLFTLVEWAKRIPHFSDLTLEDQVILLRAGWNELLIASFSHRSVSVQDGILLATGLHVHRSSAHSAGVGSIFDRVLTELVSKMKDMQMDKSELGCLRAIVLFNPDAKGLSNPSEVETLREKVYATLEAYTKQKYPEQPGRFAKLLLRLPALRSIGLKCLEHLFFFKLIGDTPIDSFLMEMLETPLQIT
Kind of experiment: holoreceptor transactivation assay, RXRγ. The experiment is classed as cell-based. Particulars: for EC50: holoreceptor transactivation, RXRγ, read-out: RXR Trans. EC50 γ; for Emax: relative to 10^-6 M cyclopropyl penta-2,4-dienoic acid reference (RXRs), read-out: % efficacy (RXRγ transactivation).
Text: as §1, §2, §3

In another experiment the target is T3, RARα (Homo sapiens, UniProt P10276).
T3 sequence (P10276 1-462): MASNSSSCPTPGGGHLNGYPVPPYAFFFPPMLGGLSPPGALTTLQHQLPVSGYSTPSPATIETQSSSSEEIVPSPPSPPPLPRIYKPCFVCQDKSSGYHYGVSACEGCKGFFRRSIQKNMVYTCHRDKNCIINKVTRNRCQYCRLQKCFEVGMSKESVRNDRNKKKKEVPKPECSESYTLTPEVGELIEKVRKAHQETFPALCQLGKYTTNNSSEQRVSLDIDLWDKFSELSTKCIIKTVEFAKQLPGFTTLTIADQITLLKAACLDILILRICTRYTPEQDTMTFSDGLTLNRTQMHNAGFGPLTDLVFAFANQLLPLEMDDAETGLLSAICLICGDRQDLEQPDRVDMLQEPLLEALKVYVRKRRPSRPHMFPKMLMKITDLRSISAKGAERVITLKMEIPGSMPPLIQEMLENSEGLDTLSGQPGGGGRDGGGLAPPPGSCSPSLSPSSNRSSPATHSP
Kind of experiment: ligand binding assay, RARα.
Text: as §1, §2, §3

A further experiment addresses T4, RARγ (Homo sapiens, UniProt P13631).
T4 sequence (P13631 1-454): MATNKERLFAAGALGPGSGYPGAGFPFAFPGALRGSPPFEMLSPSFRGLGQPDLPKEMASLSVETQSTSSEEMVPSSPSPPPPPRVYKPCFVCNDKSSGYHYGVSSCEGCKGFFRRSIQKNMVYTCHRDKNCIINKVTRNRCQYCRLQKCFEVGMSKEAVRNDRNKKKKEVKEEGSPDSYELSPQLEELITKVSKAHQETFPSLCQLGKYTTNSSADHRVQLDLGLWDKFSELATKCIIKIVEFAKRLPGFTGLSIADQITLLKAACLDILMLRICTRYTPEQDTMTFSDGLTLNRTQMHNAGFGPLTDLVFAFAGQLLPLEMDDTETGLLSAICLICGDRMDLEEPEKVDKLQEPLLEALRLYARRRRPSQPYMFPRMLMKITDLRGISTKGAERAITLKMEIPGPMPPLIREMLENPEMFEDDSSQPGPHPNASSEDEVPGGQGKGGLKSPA
As to the kind of experiment: ligand binding assay, RARγ. The note with it: read-out: RAR Bind. Ki γ.
Text: as §1, §2, §3

By EC50 is commonly meant the concentration giving half of the maximal effect. Usually Ki stands for the dissociation constant of the complex between target and ligand, obtained from inhibition or displacement. On to `CCN(c1ccc(C(=O)O)cc1)c1cc(C)c2c(c1)C(C)(C)CO2` [Compound 27, 4-[Ethyl-(3,3,7-trimethyl-2,3-dihydro-benzofuran-5-yl)-amino]-benzoic acid], for which the concentration for a half-maximal effect (EC50) on RXRα is 1000 nM; on RXRγ it was over 1000 nM. Moreover, the Emax on RXRα was 80%. Moreover, the inhibition constant (Ki) on RARα (read-out: RAR Bind. Ki α) was 30 µM; on RARγ, over 30 µM.

As to `CCc1cc(N(CC)c2ccc(C(=O)O)cc2)cc2c1OCC2(C)C` [Compound 29, 4-[Ethyl-(3,3-dimethyl-7-ethyl-2,3-dihydro-benzofuran-5-yl)-amino]-benzoic acid], the results for the EC50 on RXRα and at RXRγ were 139 nM and 692 nM, respectively. Besides, the Emax came out at 117% on RXRα and 130% at RXRγ. Further, the inhibition constant (Ki) on RARα (read-out: RAR Bind. Ki α) is over 10 µM; at RARγ, 8.4 µM.

With `CC(C)c1cc(N(C)c2ccc(C(=O)O)cc2)cc2c1OCC2(C)C` [Compound 30, 4-[Methyl-(3,3-dimethyl-7-isopropyl-2,3-dihydro-benzofuran-5-yl)-amino]-benzoic acid], the EC50 on RXRα was 1000 nM; on RXRγ, over 1000 nM. Also, the Emax at RXRα worked out at 75%; at RXRγ it was 70%. For the same compound, the figures for the Ki on RARα (read-out: RAR Bind. Ki α) and at RARγ were 16 µM and 3.3 µM, respectively.

On to `CCN(c1ccc(C(=O)O)cc1)c1cc(C(C)C)c2c(c1)C(C)(C)CO2` [Compound 31, 4-[Ethyl-(3,3-dimethyl-7-isopropyl-2,3-dihydro-benzofuran-5-yl)-amino]-benzoic acid], for which the figures for the concentration for a half-maximal effect (EC50) at RXRα and at RXRγ were 74 nM and 85 nM, respectively. Besides, the Emax on RXRα is 116%; at RXRγ, 125%. In addition, the inhibition constant (Ki) stood at 25 µM on RARα (read-out: RAR Bind. Ki α) and 4 µM on RARγ.

Take `CCN(c1ccc(C(=O)O)cc1)c1cc(C(C)(C)C)c2c(c1)C(C)(C)CO2` [Compound 32, 4-[Ethyl-(7-t-butyl-3,3-dimethyl-2,3-dihydro-benzofuran-5-yl)-amino]-benzoic acid]: the EC50 at RXRα was 98 nM; on RXRγ, 230 nM. The Emax at RXRα is 103%; at RXRγ it was 122%. For the same compound, the inhibition constant Ki on RARα (read-out: RAR Bind. Ki α) is over 1 µM; at RARγ, 2 µM.

As for `CCc1cc(N(c2ccc(C(=O)O)cc2)C(C)C)cc2c1OCC2(C)C` [Compound 42, 4-[Isopropyl-(3,3-dimethyl-7-ethyl-2,3-dihydro-benzofuran-5-yl)-amino]-benzoic acid], the 50% effective concentration (EC50) at RXRα was 203 nM; on RXRγ, 511 nM. For the same compound, the figures for the Emax on RXRα and at RXRγ were 100% and 132%, respectively. In addition, the Ki at RARα (read-out: RAR Bind. Ki α) is over 10 µM; on RARγ it was 4.9 µM.

As to `CC(C)c1cc(N(c2ccc(C(=O)O)cc2)C(C)C)cc2c1OCC2(C)C` [Compound 43], the figures for the EC50 at RXRα and on RXRγ were 16 nM and 19 nM, respectively. In addition, the Emax at RXRα came to 66%; on RXRγ it was 108%. Moreover, the Ki at RARα (read-out: RAR Bind. Ki α) was over 10 µM; at RARγ, 2.6 µM.

In the case of `CC(C)N(c1ccc(C(=O)O)cc1)c1cc(C(C)(C)C)c2c(c1)C(C)(C)CO2` [Compound 44, 4-[Isopropyl-(7-t-butyl-3,3-dimethyl-2,3-dihydro-benzofuran-5-yl)-amino]-benzoic acid], the EC50 at RXRα came to 22 nM; on RXRγ, 20 nM. Besides, the Emax on RXRα was found to be 73%; at RXRγ, 48%. Besides, the Ki at RARα (read-out: RAR Bind. Ki α) was over 1 µM; on RARγ, 1.6 µM.

In the case of `Cc1c(N(c2ccc(C(=O)O)cc2)C(C)C)cc2c(c1C(C)(C)C)OCC2(C)C` [Compound 73, 4-[Isopropyl-(7-t-butyl-3,3,6-trimethyl-2,3-dihydro-benzofuran-5-yl)-amino]-benzoic acid], the EC50 was 10 nM at RXRα and 17 nM on RXRγ. The Emax on RXRα stood at 92%; on RXRγ it was 97%. The values for the inhibition constant (Ki) at RARα (read-out: RAR Bind. Ki α) and on RARγ were 12 µM and 2.7 µM, respectively.

As for `CCN(c1ccc(C(=O)O)cc1)c1ccc2c(c1)C(C)(C)OC2(C)C` [Compound 83, 4-[Ethyl-(1,1,3,3-tetramethyl-1,3-dihydro-isobenzofuran-5-yl)-amino]-benzoic acid], the figures for the EC50 at RXRα and at RXRγ were 39 nM and 63 nM, respectively. The Emax at RXRα was 107%; at RXRγ, 140%. Also, the inhibitory constant (Ki) at RARα (read-out: RAR Bind. Ki α) and on RARγ was over 10 µM throughout.

Regarding `CCCN(c1ccc(C(=O)O)cc1)c1ccc2c(c1)C(C)(C)OC2(C)C` [Compound 84, 4-[n-Propyl-(1,1,3,3-tetramethyl-1,3-dihydro-isobenzofuran-5-yl)-amino]-benzoic acid], the results for the EC50 on RXRα and at RXRγ were 40 nM and 51 nM, respectively. Moreover, the results for the Emax on RXRα and at RXRγ were 121% and 124%, respectively. Moreover, the Ki at RARα (heading: RAR Bind. Ki α) and on RARγ was over 10 µM throughout.

Turning to `CCCCN(c1ccc(C(=O)O)cc1)c1ccc2c(c1)C(C)(C)OC2(C)C` [Compound 85, 4-[n-Butyl-(1,1,3,3-tetramethyl-1,3-dihydro-isobenzofuran-5-yl)-amino]-benzoic acid], the EC50 at RXRα is 161 nM; at RXRγ, 700 nM. The Emax at RXRα was 122%; on RXRγ, 197%. Further, the inhibitory constant (Ki) on RARα (read-out: RAR Bind. Ki α) and at RARγ was over 10 µM in each case.

For the origin of these results see patent publication US6093838A, “Amines substituted with a dihydro-benzofuranyl or with a dihydro-isobenzofuranyl group, an aryl or heteroaryl group and an alkyl group, having retinoid-like biological activity” (Allergan Sales, Inc., priority 1999, dated 2000).
